Source: patent publication US12312330B2, “1-((S)-1-(3-chloro-5-fluoro-2-((4-(1h-pyrazol-1-yl)-2-methylquinolin-8-yloxy)methyl)phenyl)ethyl)-imidazolidine-2,4-dione derivatives and related compounds as bradykinin (BK) B2 receptor antagonist for treating skin diseases” (Pharvaris GmbH, priority 2019, dated 2025)

target: T1, human bradykinin B2 receptor (hB2R) (Homo sapiens, UniProt P30411); assay: human bradykinin B2 receptor calcium mobilization (hB2R-CaM) assay; format: cell-based; conditions: antagonism of bradykinin (EC80) induced calcium mobilization, B2 Bradykinin Receptor Stable Cell Line HTS041C, 25 min pre-incubation; read-out: IC50-value towards human bradykinin B2 receptor (hB2R)
T1 sequence (P30411 1-391): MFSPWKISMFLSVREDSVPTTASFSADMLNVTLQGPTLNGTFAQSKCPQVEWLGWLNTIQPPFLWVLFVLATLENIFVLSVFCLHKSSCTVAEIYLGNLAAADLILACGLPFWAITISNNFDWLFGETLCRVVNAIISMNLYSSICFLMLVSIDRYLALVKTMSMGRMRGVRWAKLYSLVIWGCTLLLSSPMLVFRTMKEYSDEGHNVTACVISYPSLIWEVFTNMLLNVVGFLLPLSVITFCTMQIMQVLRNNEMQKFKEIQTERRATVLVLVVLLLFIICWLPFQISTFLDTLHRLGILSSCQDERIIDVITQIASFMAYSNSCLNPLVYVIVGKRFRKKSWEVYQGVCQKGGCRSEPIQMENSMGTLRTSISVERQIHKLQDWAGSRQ
Excerpt: The following cell-based human bradykinin B2 receptor calcium mobilization (hB2R-CaM) assay was used to determine the antagonistic activity of compounds selected from the example compounds Nos. 1 to 107 towards human bradykinin B2 receptor (hB2R). The assay is defined herein as a standard in vitro B2 receptor activity assay, which can be used to determine IC50 values of the compounds according to the present invention, e. g. the compounds shown in Examples 1-13.
The antagonistic activity of compounds according to the present invention was investigated with the hB2R-CaM assay using the B2 Bradykinin Receptor Stable Cell Line HTS041C (Eurofins, St. Charles MO) and the FLIPR Calcium 6 Assay Kit (Molecular Devices, Wokingham, UK) according to the instructions of the providers. CaM assay measurements were performed with a Flexstation 3 System (Molecular Devices) which allows the precise addition of compounds (B2R antagonists) and bradykinin (B2R agonist) to the cells and adjacent continuous recording of the time-dependent CaM assay signals.
HTS041C cells were cultured in high glucose DMEM cell culture medium (Lonza) supplemented with 10% heat-inactivated FBS (PAN Biotech), 10 mM HEPES, Penicillin/Streptomycin (200 U/mL, 200 μg/mL), lx non-essential amino acids (Lonza), and 250 μg/mL G418 (Invivogen) in cell incubator at 37° C. in a 5% CO2 atmosphere. One day before the CaM assay experiments cells were seeded in 200 μL DMEM cell culture medium with reduced FBS (5%) and without G418 on clear bottom black 96 well plates (ThermoFisher #165305). Cell starvation was carried out by incubation (37° C., 5% CO2) of 70.000 cells/well for 24 h to 28 h. Immediately prior calcium dye-loading the medium was carefully aspirated and cells were washed with Hank's balanced salt solution (HBSS, Gibco) containing Ca^2+, Mg^2+ and 20 mM HEPES, adjusted to pH 7.4 (HBSS+).
For calcium dye-loading one FLIPR 6 assay aliquot was dissolved in 20 mL HBSS+. 150 μL of the dye loading solution was added to cell plate and incubated for 120 min at 37° C. and 5% CO2. After dye loading the cell plate was immediately transferred to the pre-warmed (37° C.) Flexstation 3 System for CaM assaying.
Freshly prepared compound (B2 receptor antagonists) dilution series (8 pt, n=2) and bradykinin (B2 receptor agonist) solution in non-binding plates (Costar) were transferred to the Flexstation System (source plate) shortly before starting the experiment. Bradykinin was added in EC80 concentration determined in n>3 preliminary experiments with 8 pt concentration response curves (n=8)). CaM assay was executed by Flexstation 3 System starting with recording of calcium-sensitive dye fluorescence in bottom-read Flex modus with ex/em=485 nm/525 nm, cut off(em)=515 nm After 20 s, 50 μL of 4-fold concentrated compound dilutions were added to the cells resulting in a final DMSO (Sigma) concentration of 0.1% in the cell plate. CaM signals were monitored for 80 s after additions for detection of potential agonistic activities. Prior to bradykinin stimulus compound- and vehicle-treated cells were incubated for 25 min at 37° C. within the Flexstation System. Then 50 μL of a 5-fold concentrated bradykinin solution (HBSS+, 0.1% DMSO) was added to trigger CaM signals (Read out: Max-Min values) which were measured for 80 s post bradykinin stimulus.
IC50 determinations were performed by 4 parameter logistic model curve fitting of the 8 pt (n=2) compound concentration response curves using XLFIT (IDBS) software.

First: CCN1C(=O)C(C)N([C@@H](C)c2cc(F)cc(Cl)c2COc2cccc3c(-n4cc(F)cn4)cc(C)nc23)C1=O (single isomer, unassigned) [Compound No. 2]
Second: Cc1cc(-n2cc(F)cn2)c2cccc(OCc3c(Cl)cc(F)cc3[C@H](C)N3C(=O)N(C4CC4)C(=O)C3C)c2n1 (single isomer, unassigned) [compound 31]
The IC50 of the first is lower: 11 to 100 nM for the first, 101 to 500 nM for the second. The first is the more potent here.

`Cc1cc(-n2cc(F)cn2)c2cccc(OCc3c(Cl)cc(F)cc3[C@H](C)N3CCN(C)[C@H](C)C3=O)c2n1` [compound 93] and `Cc1cc(-n2cc(F)cn2)c2cccc(OCc3c(Cl)cc(F)cc3[C@H](C)N3CCN(C)[C@@H](C)C3=O)c2n1` [compound 92] cannot be ordered by IC50: ≤ 10 nM for the first, ≤ 10 nM for the second.

`Cc1cc(-c2ncnn2C)c2cccc(OCc3c(Cl)cc(F)cc3[C@H](C)N3CCOC(C)C3=O)c2n1` (single isomer, unassigned) [compound 48] and `Cc1cc(-c2ncnn2C)c2cccc(OCc3c(Cl)cc(F)cc3[C@H](C)N3C[C@@H](C)OCC3=O)c2n1` [compound 40] cannot be ordered by IC50: ≤ 10 nM for the first, ≤ 10 nM for the second.

First: Cc1cc(-c2ncnn2C)c2cccc(OCc3c(Cl)cc(F)cc3[C@H](C)N3CC(=O)N(C)[C@H](C)C3=O)c2n1 [compound 104]
Second: Cc1cc(-c2ncnn2C)c2cccc(OCc3c(Cl)cc(F)cc3[C@H](C)N3CC(=O)N[C@H](C)C3=O)c2n1 [compound 75]
The IC50 of the first is lower: ≤ 10 nM for the first, 11 to 100 nM for the second.

`Cc1cc(-n2cc(F)cn2)c2cccc(OCc3c(Cl)cc(F)cc3[C@H](C)N3CCC(C)C3=O)c2n1` (single isomer, unassigned) [compound 58] and `Cc1cc(-n2cc(F)cn2)c2cccc(OCc3c(Cl)cc(F)cc3[C@H](C)N3CC[C@@H](O)C3=O)c2n1` [compound 42] fall in the same range of IC50: 11 to 100 nM for the first, 11 to 100 nM for the second.

`Cc1cc(-c2ncnn2C)c2cccc(OCc3c(Cl)cc(F)cc3[C@H](C)N3CCOCC3=O)c2n1` [compound 34] and `Cc1cc(-c2ncnn2C)c2cccc(OCc3c(Cl)cc(F)cc3[C@H](C)N3CCCC3=O)c2n1` [compound 27] cannot be ordered by IC50: ≤ 10 nM for the first, ≤ 10 nM for the second.

`Cc1cc(-c2ncnn2C)c2cccc(OCc3c(Cl)cc(F)cc3[C@H](C)N3C[C@@H](O)CCC3=O)c2n1` [Compound No. 8, (S)-1-((S)-1-(3-chloro-5-fluoro-2-((2-methyl-4-(1-methyl-1H-1,2,4-triazol-5-yl)quinolin-8-yloxy)methyl)phenyl)ethyl)-5-hydroxypiperidin-2-one] and `Cc1cc(-c2ncnn2C)c2cccc(OCc3c(Cl)cc(F)cc3[C@H](C)N3C[C@H](O)CCC3=O)c2n1` [compound 83] fall in the same range of IC50: 11 to 100 nM for the first, 11 to 100 nM for the second.

First: CC(=O)N1CCN([C@@H](C)c2cc(F)cc(Cl)c2COc2cccc3c(-n4cc(F)cn4)cc(C)nc23)C(=O)C1 [compound 78]
Second: Cc1cc(-n2cc(F)cn2)c2cccc(OCc3c(Cl)cc(F)cc3[C@H](C)N3CCN(C)C(=O)C3=O)c2n1 [compound 87]
The IC50 of the first is higher: 11 to 100 nM for the first, ≤ 10 nM for the second.

Compared with `Cc1cc(-n2cc(F)cn2)c2cccc(OCc3c(Cl)cc(F)cc3[C@H](C)N3CCN[C@@H](C)C3=O)c2n1` [compound 94], `Cc1cc(-n2cc(F)cn2)c2cccc(OCc3c(Cl)cc(F)cc3[C@H](C)N3CCNC3=O)c2n1` [Compound No. 3, (S)-1-(1-(3-chloro-5-fluoro-2-((4-(4-fluoro-1H-pyrazol-1-yl)-2-methylquinolin-8-yloxy)methyl)phenyl)ethyl)imidazolidin-2-one] is higher in IC50: ≤ 10 nM for the first, 11 to 100 nM for the second.

First: Cc1cc(-c2ncnn2C)c2cccc(OCc3c(Cl)cc(F)cc3[C@H](C)N3CC[C@@H](OC(F)F)C3=O)c2n1 [compound 88]
Second: Cc1cc(-c2ncnn2C)c2cccc(OCc3c(Cl)cc(F)cc3[C@H](C)N3C[C@@H](OC(F)F)CC3=O)c2n1 [Compound No. 6, (S)-1-((S)-1-(3-chloro-5-fluoro-2-((2-methyl-4-(1-methyl-1H-1,2,4-triazol-5-yl)quinolin-8-yloxy)methyl)phenyl)ethyl)-4-(difluoromethoxy)pyrrolidin-2-one]
The IC50 of the first is lower: ≤ 10 nM for the first, 11 to 100 nM for the second. The first is the more potent here.

`Cc1cc(-c2ncnn2C)c2cccc(OCc3c(Cl)cc(F)cc3[C@H](C)N3CC(C)CC3=O)c2n1` (some centres unmarked) [compound 63] and `Cc1cc(-c2ncnn2C)c2cccc(OCc3c(Cl)cc(F)cc3[C@H](C)N3C[C@@H](O)CC3=O)c2n1` [compound 73] cannot be ordered by IC50: ≤ 10 nM for the first, ≤ 10 nM for the second.

First: COC1CN([C@@H](C)c2cc(F)cc(Cl)c2COc2cccc3c(-n4cc(F)cn4)cc(C)nc23)C(=O)O1 (single isomer, unassigned) [compound 52]
Second: Cc1cc(-n2cc(F)cn2)c2cccc(OCc3c(Cl)cc(F)cc3[C@H](C)N3C[C@H](O)CC3=O)c2n1 [compound 95]
The IC50 of the first is higher: 101 to 500 nM for the first, 11 to 100 nM for the second.

First: Cc1cc(-n2cc(F)cn2)c2cccc(OCc3c(Cl)cc(F)cc3[C@H](C)N3CC(=O)N(C)[C@@H](C)C3=O)c2n1 [Compound No. 12, (S)-1-((S)-1-(3-chloro-5-fluoro-2-((4-(4-fluoro-1H-pyrazol-1-yl)-2-methylquinolin-8-yloxy)methyl)phenyl)ethyl)-3,4-dimethylpiperazine-2,5-dione]
Second: Cc1cc(-n2cc(F)cn2)c2cccc(OCc3c(Cl)cc(F)cc3[C@H](C)N3CC(=O)N(C(C)C)C3=O)c2n1 [compound 14]
The IC50 of the first is lower: ≤ 10 nM for the first, 11 to 100 nM for the second.

`Cc1cc(-n2cc(F)cn2)c2cccc(OCc3c(Cl)cc(F)cc3[C@H](C)N3CCOCC3=O)c2n1` [compound 18] and `Cc1cc(-n2cc(F)cn2)c2cccc(OCc3c(Cl)cc(F)cc3[C@H](C)N3CCCCC3=O)c2n1` [compound 16] fall in the same range of IC50: 11 to 100 nM for the first, 11 to 100 nM for the second.

`Cc1cc(-n2cc(F)cn2)c2cccc(OCc3c(Cl)cc(F)cc3[C@H](C)N3CC(=O)N(CC(N)=O)C3=O)c2n1` [Compound No. 1, (S)-2-(3-(1-(3-chloro-5-fluoro-2-((4-(4-fluoro-1H-pyrazol-1-yl)-2-methylquinolin-8-yloxy)methyl)phenyl)ethyl)-2,5-dioxoimidazolidin-1-yl)acetamide] and `CCN1C(=O)CN([C@@H](C)c2cc(F)cc(Cl)c2COc2cccc3c(-n4cc(F)cn4)cc(C)nc23)C1=O` [compound 107] fall in the same range of IC50: 11 to 100 nM for the first, 11 to 100 nM for the second.

First: Cc1cc(-c2ncnn2C)c2cccc(OCc3c(Cl)cc(F)cc3[C@H](C)N3C(=O)[C@@H](C)NC(=O)[C@H]3C)c2n1 [compound 105]
Second: Cc1cc(-c2ncnn2C)c2cccc(OCc3c(Cl)cc(F)cc3[C@H](C)N3C(=O)N(C4CC4)C(=O)C3C)c2n1 (single isomer, unassigned) [compound 55]
The IC50 of the first is higher: 11 to 100 nM for the first, ≤ 10 nM for the second. The second is the more potent here.

`Cc1cc(-n2cc(F)cn2)c2cccc(OCc3c(Cl)cc(F)cc3[C@H](C)N3CC(=O)N(CCN)C3=O)c2n1` [compound 23] and `Cc1cc(-n2cc(F)cn2)c2cccc(OCc3c(Cl)cc(F)cc3[C@H](C)N3CC(=O)NCC3=O)c2n1` [compound 25] fall in the same range of IC50: 11 to 100 nM for the first, 11 to 100 nM for the second.

Compared with `Cc1cc(-c2ncnn2C)c2cccc(OCc3c(Cl)cc(F)cc3[C@H](C)N3CCCCC3=O)c2n1` [compound 26], `Cc1cc(-c2ncnn2C)c2cccc(OCc3c(Cl)cc(F)cc3[C@H](C)N3CC(=O)N(C)CC3=O)c2n1` [compound 47] is higher in IC50: ≤ 10 nM for the first, 11 to 100 nM for the second. The first is the more potent here.

Compared with `Cc1cc(-n2cc(F)cn2)c2cccc(OCc3c(Cl)cc(F)cc3[C@H](C)N3CCN(C(=O)OC(C)(C)C)[C@@H](C)C3=O)c2n1` [compound 80], `Cc1cc(-n2cc(F)cn2)c2cccc(OCc3c(Cl)cc(F)cc3[C@H](C)N3C[C@@H](C)NC(=O)C3=O)c2n1` [compound 97] is lower in IC50: 101 to 500 nM for the first, ≤ 10 nM for the second. The second is the more potent here.
